# In ChEMBL document CHEMBL3046261, “Efficient entry to diversely functionalized spirooxindoles from isatin and their biological activity” (Med Chem Res, 2013):
# Assay: Cytotoxicity against Homo sapiens (human) U87 cells by MTT assay
# Type: functional, cell-based, U-87MG ATCC
# Conditions: U-87 MG
row,Structure (SMILES),IC50
1,O=C1C(=O)N(CCCBr)c2ccccc21,2.5 µg/mL
2,O=C1C(=O)N(CCCCBr)c2ccccc21,19 µg/mL
3,O=C1C(=O)N(CCCCCCBr)c2ccccc21,19 µg/mL
4,Cc1nn(-c2ccccc2)c2c1C1(C(=O)Nc3ccccc31)C(C#N)=C(N)O2 (configuration not stated),156 µg/mL
5,O=C1C(=O)N(CCBr)c2ccccc21,4.9 µg/mL
6,Cc1nn(-c2ccccc2)c2c1C1(C(=O)Nc3ccc(Br)cc31)C(C#N)=C(N)O2 (configuration not stated),156 µg/mL
7,Cc1nn(-c2ccccc2)c2c1C1(C(=O)N(CCBr)c3ccccc31)C(C#N)=C(N)O2 (configuration not stated),78 µg/mL
8,Cc1nn(-c2ccccc2)c2c1C1(C(=O)N(CCCBr)c3ccccc31)C(C#N)=C(N)O2 (configuration not stated),78 µg/mL
9,Cc1nn(-c2ccccc2)c2c1C1(C(=O)N(CCCCBr)c3ccccc31)C(C#N)=C(N)O2 (configuration not stated),39 µg/mL
10,Cc1nn(-c2ccccc2)c2c1C1(C(=O)N(CCCCCCBr)c3ccccc31)C(C#N)=C(N)O2 (configuration not stated),78 µg/mL
11,Cc1nn(-c2ccccc2)c2c1C1(C(=O)N(CCCCCCCCCCBr)c3ccccc31)C(C#N)=C(N)O2 (configuration not stated),19 µg/mL
12,O=C1C(=O)N(CCCCCCCCCCBr)c2ccccc21,19 µg/mL
13,N#CC1=C(N)Oc2[nH]c(=S)[nH]c(=O)c2C12C(=O)Nc1ccc(Br)cc12 (configuration not stated),156 µg/mL
14,N#CC1=C(N)Oc2[nH]c(=S)[nH]c(=O)c2C12C(=O)N(CCBr)c1ccccc12 (configuration not stated),78 µg/mL
15,N#CC1=C(N)Oc2[nH]c(=O)[nH]c(=S)c2C12C(=O)N(CCCBr)c1ccccc12 (configuration not stated),624 µg/mL
16,N#CC1=C(N)Oc2[nH]c(=S)[nH]c(=O)c2C12C(=O)N(CCCCBr)c1ccccc12 (configuration not stated),78 µg/mL
17,N#CC1=C(N)Oc2[nH]c(=S)[nH]c(=O)c2C12C(=O)N(CCCCCCBr)c1ccccc12 (configuration not stated),78 µg/mL
18,N#CC1=C(N)Oc2[nH]c(=O)[nH]c(=S)c2C12C(=O)N(CCCCCCCCCCBr)c1ccccc12 (configuration not stated),39 µg/mL
19,N#CC1=C(N)Oc2c(c(=O)oc3ccccc23)C12C(=O)Nc1ccccc12 (configuration not stated),78 µg/mL
20,N#CC1=C(N)Oc2c(c(=O)oc3ccccc23)C12C(=O)Nc1ccc(Br)cc12 (configuration not stated),78 µg/mL
21,N#CC1=C(N)Oc2c(c(=O)oc3ccccc23)C12C(=O)N(CCBr)c1ccccc12 (configuration not stated),78 µg/mL

row,Structure (SMILES),IC50
1,N#CC1=C(N)Oc2c(c(=O)oc3ccccc23)C12C(=O)N(CCCBr)c1ccccc12 (configuration not stated),156 µg/mL
2,N#CC1=C(N)Oc2c(c(=O)oc3ccccc23)C12C(=O)N(CCCCBr)c1ccccc12 (configuration not stated),78 µg/mL
3,N#CC1=C(N)Oc2c(c(=O)oc3ccccc23)C12C(=O)N(CCCCCCBr)c1ccccc12 (configuration not stated),156 µg/mL
4,N#CC1=C(N)Oc2c(c(=O)oc3ccccc23)C12C(=O)N(CCCCCCCCCCBr)c1ccccc12 (configuration not stated),39 µg/mL
5,CC1(C)CC(=O)C2=C(C1)OC(N)=C(C#N)C21C(=O)N(CCCCCCCCCCBr)c2ccccc21 (configuration not stated),2.5 µg/mL
6,N#CC1=C(N)OC2=C(C(=O)CCC2)C12C(=O)Nc1ccccc12 (configuration not stated),156 µg/mL
7,N#CC1=C(N)OC2=C(C(=O)CCC2)C12C(=O)Nc1ccc(Br)cc12 (configuration not stated),312 µg/mL
8,N#CC1=C(N)OC2=C(C(=O)CCC2)C12C(=O)N(CCBr)c1ccccc12 (configuration not stated),78 µg/mL
9,N#CC1=C(N)OC2=C(C(=O)CCC2)C12C(=O)N(CCCBr)c1ccccc12 (configuration not stated),624 µg/mL
10,N#CC1=C(N)Oc2[nH]c(=O)[nH]c(=O)c2C12C(=O)Nc1ccccc12 (configuration not stated),312 µg/mL
11,N#CC1=C(N)Oc2[nH]c(=O)[nH]c(=O)c2C12C(=O)Nc1ccc(Br)cc12 (configuration not stated),78 µg/mL
12,N#CC1=C(N)Oc2[nH]c(=O)[nH]c(=O)c2C12C(=O)N(CCBr)c1ccccc12 (configuration not stated),78 µg/mL
13,N#CC1=C(N)Oc2[nH]c(=O)[nH]c(=O)c2C12C(=O)N(CCCBr)c1ccccc12 (configuration not stated),312 µg/mL
14,N#CC1=C(N)Oc2[nH]c(=O)[nH]c(=O)c2C12C(=O)N(CCCCBr)c1ccccc12 (configuration not stated),312 µg/mL
15,N#CC1=C(N)Oc2[nH]c(=O)[nH]c(=O)c2C12C(=O)N(CCCCCCBr)c1ccccc12 (configuration not stated),78 µg/mL
16,N#CC1=C(N)Oc2[nH]c(=O)[nH]c(=O)c2C12C(=O)N(CCCCCCCCCCBr)c1ccccc12 (configuration not stated),39 µg/mL
17,CC1(C)CC(=O)C2=C(C1)OC(N)=C(C#N)C21C(=O)N(CCBr)c2ccccc21 (configuration not stated),78 µg/mL
18,CC1(C)CC(=O)C2=C(C1)OC(N)=C(C#N)C21C(=O)N(CCCBr)c2ccccc21 (configuration not stated),312 µg/mL
19,CC1(C)CC(=O)C2=C(C1)OC(N)=C(C#N)C21C(=O)N(CCCCBr)c2ccccc21 (configuration not stated),156 µg/mL
20,CC1(C)CC(=O)C2=C(C1)OC(N)=C(C#N)C21C(=O)N(CCCCCCBr)c2ccccc21 (configuration not stated),78 µg/mL
21,O=NN(CCCl)C(=O)NCCCl [CARMUSTINE],3.9 µg/mL
